# Measurements as given in article PMC8658016, “Identification of New Compounds with Anticonvulsant and Antinociceptive Properties in a Group of 3-substituted (2,5-dioxo-pyrrolidin-1-yl)(phenyl)-Acetamides” (International Journal of Molecular Sciences, 2021).
# How the values were obtained:
# mice [1] = test: Oxaliplatin-induced peripheral neuropathy, tactile allodynia (von Frey); assay type: in vivo, mouse; details: for pain sensitivity threshold (von Frey), early phase / pain threshold as % of the baseline value, early phase: 3 h after oxaliplatin; for pain threshold (von Frey), late phase / pain threshold as % of the baseline value, late phase: 7 days after oxaliplatin
# Source text: To investigate the analgesic activity of compound 14 in neuropathic pain, we used the OXPT-induced peripheral neuropathy model. OXPT directly affects neurons, which results in the upregulation of TRPM8 and TRPA1 and the downregulation of Kv4.3 neuronal channels. Moreover, OXPT forms adduct with mitochondrial DNA and, in this way, change the expression of membrane-associated protein such as channels. All these effects finally lead to peripheral and central sensitization. The neuropathy manifests as the decrease in the pain threshold and can be observed in hours or in days after OXPT administration, which is called the early or late phase of neuropathic pain, respectively. We tested the influence of compound 14 on tactile allodynia using the von Frey method 3 h and 7 days after the induction of neuropathy. In the early phase, we observed a significant decrease in the value of mean force that caused a paw withdrawal reaction (1.84 ± 0.05 g) (60.9% of the baseline) compared to non-treated animals (3.02 ± 0.07 g) (the baseline). In the late phase, the pain threshold was 1.97 ± 0.07 (65.2% of the baseline). The observed tactile allodynia was attenuated by compound 14, which elevated the pain sensitivity threshold in the early phase in a dose-dependent manner. (Figure 7) (2.61 ± 0.08 g, 2.94 ± 0.04 g, and 3.05 ± 0.08 g at the dose of 40 mg/kg, 60 mg/kg, and 80 mg/kg, respectively, which corresponded to 86.4%, 97.3%, and 100.9% of the baseline value). In the late phase, the pain threshold values were 2.45 ± 0.06 g, 2.88 ± 0.04 g, and 2.98 ± 0.06 g, which corresponded to 81.1%, 95.3%, and 98.6% of the baseline value.
# The experiments were conducted on adult male Albino Swiss mice (CD-1, 18–25 g) and male Wistar rats (Krf:(WI) WU), 180–250 g) as described previously. The minimum number of animals used needed to obtain definite and normally distributed results with the utilized test. Behavioral measures were scored by trained observers, which were blind to experimental conditions. The following devices were used in the experiments: Analgesy Meter (37215, Ugo Basile), Plantar Test Apparatus (EFV5, Commat Ltd., Turkey), Plethysmometer (Plethysmometer 7140, Ugo Basile), Electronic von Frey unit (BIOSEB, France). All procedures were performed according to the European Union Directive of 22 September 2010 (2010/63/EU) and approved by the Local Ethics Committee for Experiments on Animals in Krakow, Poland (resolution no. 105/2016).
# Figure 7 Antiallodynic effects of compound 14 in the tactile allodynia evaluated in the von Frey test in oxaliplatin-induced peripheral neuropathy. Statistical analysis: repeated measures analysis of variance (ANOVA), followed by Dunnett’s post hoc comparison: *** p < 0.001, **** p < 0.0001 (GraphPad Prism 8.0.1). Results obtained before the treatment with oxaliplatin (the gray bar) and after the treatment with oxaliplatin and the compound (post compound 14, the red bars) were compared to the results obtained after the treatment with oxaliplatin and before the administration of the compound (pre compound 14; the white bars).
# [2] = test system: TTX-sensitive Na+ channel; test: Radioligand binding, TTX-sensitive Na+ channel; details: rat cerebral cortex
# [3] = Rectal temperature measurement; assay type: in vivo, mouse; details: 30 and 60 mg/kg i.p., 30 min
# Procedure: Figure 4 Acute effect of compound 14 on rectal temperature in mice. Compound 14 was administered i.p. 30 min before the seizure test. Control animals received vehicle only. Each experimental group consisted of 10 animals. Each bar represents the mean difference between the pre-injection and post-injection values of rectal temperature in mice (ΔT) + S.E.M. Data were analyzed with one-way ANOVA test (GraphPad Prism 8.0.1).
# In this study, we used adult male Swiss albino mice (Kołacz, Laboratory Animals Breeding, Warszawa, Poland) license no. 106/2019 (Local Ethical Committee in Lublin). […]
# The timed ivPTZ test was employed to evaluate the acute effect of compound 14 on the seizure thresholds for (1) the first myoclonic twitch, (2) generalized clonic seizure with loss of righting reflex, and (3) forelimb tonus. […] The changes in temperature were recorded using an electronic thermometer (ThermoWorks, Alpine, UT, USA). […]
# The probe remained in the rectum for several second, allowing for temperature stabilization. The temperature was recorded just before injection of compound 14 or vehicle and 30 min later. The difference between the pre- and post-injection temperature value was then calculated (Δ °C).
# mice [4] = test: Psychomotor 6 Hz (32 mA) seizure test; assay type: in vivo, mouse; details: mice i.p.
structure (smiles),measurement,setting,value
"CN(C)C1CC(=O)N(C(C(=O)N2CCN(c3cccc(C(F)(F)F)c3)CC2)c2ccccc2)C1=O.Cl (stereo not drawn) [Compound 14, 3-(Dimethylamino)-1-(2-oxo-1-phenyl-2-(4-(3-(trifluoromethyl)phenyl)-piperazin-1-yl)ethyl)pyrrolidine-2,5-dione hydrochloride]","pain sensitivity threshold (von Frey), early phase",mice [1]; 40 mg/kg,2.61 ± 0.08 g
same,"pain threshold as % of the baseline value, early phase",mice [1]; 40 mg/kg,86.4%
same,"pain threshold (von Frey), late phase",mice [1]; 40 mg/kg,2.45 ± 0.06 g
same,"pain threshold as % of the baseline value, late phase",mice [1]; 40 mg/kg,81.1%
same,"pain sensitivity threshold (von Frey), early phase",mice [1]; 60 mg/kg,2.94 ± 0.04 g
same,"pain threshold as % of the baseline value, early phase",mice [1]; 60 mg/kg,97.3%
same,"pain threshold (von Frey), late phase",mice [1]; 60 mg/kg,2.88 ± 0.04 g
same,"pain threshold as % of the baseline value, late phase",mice [1]; 60 mg/kg,95.3%
same,"pain sensitivity threshold (von Frey), early phase",mice [1]; 80 mg/kg,3.05 ± 0.08 g
same,"pain threshold as % of the baseline value, early phase",mice [1]; 80 mg/kg,100.9%
same,"pain threshold (von Frey), late phase",mice [1]; 80 mg/kg,2.98 ± 0.06 g
same,"pain threshold as % of the baseline value, late phase",mice [1]; 80 mg/kg,98.6%
same,"% Inhibition of Control-Specific Binding, TTX-sensitive Na+ channel",[2]; 10 µM,31.0%
same,"% Inhibition of Control-Specific Binding, TTX-sensitive Na+ channel",[2]; 50 µM,90.3%
same,effect on body (rectal) temperature,[3],did not produce statistically significant changes
same,ED50,"mice [4]; Mus musculus, ip, 95% confidence interval in parentheses",31.3 mg/kg
same,6 Hz (32 mA) screening: number of mice protected / number of mice tested,"mice [4]; 100 mg/kg, 0.5 h",3/4
same,protection in the 6 Hz (32 mA) test,"mice [4]; 100 mg/kg, 0.5 h",75%
